Source: ChEMBL document CHEMBL3616377, “2-(3'-Indolyl)-N-arylthiazole-4-carboxamides: Synthesis and evaluation of antibacterial and anticancer activities” (Bioorg Med Chem Lett, 2015)
≈ marks a conversion by molar mass, not a printed value.

Tests used:
HEK-293T [1] = test: Cytotoxicity against human HEK293T cells after 48 hrs by MTT assay in presence of 10% FBS; type: cell-based
HEK-293T [2] = test: Cytotoxicity against human HEK293T cells after 48 hrs by MTT assay in absence of 10% FBS; type: cell-based
PC-3 [3] = test: Cytotoxicity against human PC3 cells after 48 hrs by MTT assay in presence of 10% FBS; type: functional, cell-based; conditions: PC-3, 48 h
[4] = Cytotoxicity against human castration-resistant C4-2 cells after 48 hrs by MTT assay in absence of 10% FBS; type: functional, cell-based; conditions: LNCaP C4-2, 48 h
Bacillus subtilis [5] = test: Antibacterial activity against Bacillus subtilis MTCC 121 after 18 to 24 hrs by agar well diffusion method; type: functional
LNCaP [6] = test: Cytotoxicity against human LNCAP cells after 48 hrs by MTT assay in absence of 10% FBS; type: functional, cell-based
Pseudomonas putida [7] = test: Antibacterial activity against Pseudomonas putida MTCC 102 after 18 to 24 hrs by agar well diffusion method; type: functional
MDA-MB-231 [8] = test: Cytotoxicity against human MDA-MB-231 cells after 48 hrs by MTT assay in absence of 10% FBS; type: functional, cell-based; conditions: MDA-MB-231, 48 h
Bacillus subtilis [9] = test: Antibacterial activity against Bacillus subtilis MTCC 121 after 18 to 24 hrs by broth microdilution method; type: functional
Escherichia coli [10] = test: Antibacterial activity against Escherichia coli MTCC 1652 after 18 to 24 hrs by broth microdilution method; type: functional
[11] = Cytotoxicity against human castration-resistant C4-2 cells after 48 hrs by MTT assay in presence of 10% FBS; type: functional, cell-based; conditions: LNCaP C4-2, 48 h
HeLa [12] = test: Cytotoxicity against human HeLa cells after 48 hrs by MTT assay in absence of 10% FBS; type: functional, cell-based
Pseudomonas putida [13] = test: Antibacterial activity against Pseudomonas putida MTCC 102 after 18 to 24 hrs by broth microdilution method; type: functional
Staphylococcus aureus [14] = test: Antibacterial activity against Staphylococcus aureus MTCC 96 after 18 to 24 hrs by broth microdilution method; type: functional
MDA-MB-231 [15] = test: Cytotoxicity against human MDA-MB-231 cells after 48 hrs by MTT assay in presence of 10% FBS; type: functional, cell-based; conditions: MDA-MB-231, 48 h
PC-3 [16] = test: Cytotoxicity against human PC3 cells after 48 hrs by MTT assay in absence of 10% FBS; type: functional, cell-based; conditions: PC-3, 48 h
HeLa [17] = test: Cytotoxicity against human HeLa cells after 48 hrs by MTT assay in presence of 10% FBS; type: functional, cell-based
Staphylococcus aureus [18] = test: Antibacterial activity against Staphylococcus aureus MTCC 96 after 18 to 24 hrs by agar well diffusion method; type: functional
Escherichia coli [19] = test: Antibacterial activity against Escherichia coli MTCC 1652 after 18 to 24 hrs by agar well diffusion method; type: functional
LNCaP [20] = test: Cytotoxicity against human LNCAP cells after 48 hrs by MTT assay in presence of 10% FBS; type: functional, cell-based
[21] = Solubility of the compound in 0.05 to 0.1% DMSO; type: physicochemical

| Compound | IC50 (HEK-293T [1]) [µM] | IC50 (HEK-293T [2]) [µM] | IC50 (PC-3 [3]) [µM] | IC50 [4] [µM] | inhibition zone (IZ) (Bacillus subtilis [5]) [mm] | IC50 (LNCaP [6]) [µM] | inhibition zone (IZ) (Pseudomonas putida [7]) [mm] | IC50 (MDA-MB-231 [8]) [µM] | MIC (Bacillus subtilis [9]) [µg/mL] | MIC (Escherichia coli [10]) [µg/mL] | IC50 [11] [µM] | IC50 (HeLa [12]) [µM] | MIC (Pseudomonas putida [13]) [µg/mL] | MIC (Staphylococcus aureus [14]) [µg/mL] | IC50 (MDA-MB-231 [15]) [µM] | IC50 (PC-3 [16]) [µM] | IC50 (HeLa [17]) [µM] | inhibition zone (IZ) (Staphylococcus aureus [18]) [mm] | inhibition zone (IZ) (Escherichia coli [19]) [mm] | IC50 (LNCaP [20]) [µM] | further results |
| --- | --- | --- | --- | --- | --- | --- | --- | --- | --- | --- | --- | --- | --- | --- | --- | --- | --- | --- | --- | --- | --- |
| O=C(Nc1ccccc1)c1csc(-c2cn(Cc3ccc(Cl)cc3)c3ccccc23)n1 | > 100 | > 100 | > 100 | > 100 | 13 | 64.1 | 15 | 50.5 | 100 (≈ 225 µM) | 50 (≈ 113 µM) | > 100 | 24.3 | 50 (≈ 113 µM) | 100 (≈ 225 µM) | > 100 | 76.4 | 32.1 | 12 | 15 | 68.9 |  |
| O=C(O)c1cn(C2CC2)c2cc(N3CCNCC3)c(F)cc2c1=O [CIPROFLOXACIN] |  |  |  |  | 24 |  | 21 |  | 6.25 (≈ 18.9 µM) |  |  |  | 12.5 (≈ 37.7 µM) |  |  |  |  | 23 |  |  |  |
| COc1ccc(NC(=O)c2csc(-c3c[nH]c4ccccc34)n2)cc1 |  |  |  |  | 12 |  | 12 |  | 100 (≈ 286 µM) | 50 (≈ 143 µM) |  |  | 100 (≈ 286 µM) | 100 (≈ 286 µM) |  |  |  | 11 | 14 |  | solubility [21]: Insoluble |
| COc1ccc(NC(=O)c2csc(-c3cn(Cc4ccc(Cl)cc4)c4ccccc34)n2)cc1 | > 100 | > 100 | > 100 | > 100 | 15 | > 100 | 16 | 84.9 | 50 (≈ 105 µM) | 12.5 (≈ 26.4 µM) | > 100 | > 100 | 12.5 (≈ 26.4 µM) | 100 (≈ 211 µM) | > 100 | > 100 | 90.9 | 14 | 16 | > 100 |  |
| CN(C)c1ccc(NC(=O)c2csc(-c3c[nH]c4ccccc34)n2)cc1 |  |  |  |  | 14 |  | 14 |  | 50 (≈ 138 µM) | 100 (≈ 276 µM) |  |  | 50 (≈ 138 µM) | 100 (≈ 276 µM) |  |  |  | 13 | 12 |  | solubility [21]: Insoluble |
| COc1cc(NC(=O)c2csc(-c3c[nH]c4ccc(Br)cc34)n2)cc(OC)c1OC | 32.8 | > 100 | > 100 | > 100 | 16 | > 100 | 16 | > 100 | 12.5 (≈ 25.6 µM) | 50 (≈ 102 µM) | > 100 | 55.8 | 12.5 (≈ 25.6 µM) | 50 (≈ 102 µM) | > 100 | > 100 | 93 | 15 | 14 | > 100 |  |
| COc1ccc(NC(=O)c2csc(-c3c[nH]c4ccccc34)n2)cc1OC |  |  |  |  | 14 |  | 16 |  | 50 (≈ 132 µM) | 25 (≈ 65.9 µM) |  |  | 25 (≈ 65.9 µM) | 50 (≈ 132 µM) |  |  |  | 14 | 16 |  | solubility [21]: Insoluble |
